In patent publication US20140171417A1, “TRICYCLIC COMPOUNDS” (NOVARTIS AG, priority 2012, published 2014) one finds IC50 data, which are given here for 18 compounds.

For orientation: IC50 means the concentration that inhibits the measured activity by half. A low value points to inhibition by little substance.

The structures appear in SMILES notation. Some results are limits rather than exact numbers.

T1 sequence (P13569 whole entry): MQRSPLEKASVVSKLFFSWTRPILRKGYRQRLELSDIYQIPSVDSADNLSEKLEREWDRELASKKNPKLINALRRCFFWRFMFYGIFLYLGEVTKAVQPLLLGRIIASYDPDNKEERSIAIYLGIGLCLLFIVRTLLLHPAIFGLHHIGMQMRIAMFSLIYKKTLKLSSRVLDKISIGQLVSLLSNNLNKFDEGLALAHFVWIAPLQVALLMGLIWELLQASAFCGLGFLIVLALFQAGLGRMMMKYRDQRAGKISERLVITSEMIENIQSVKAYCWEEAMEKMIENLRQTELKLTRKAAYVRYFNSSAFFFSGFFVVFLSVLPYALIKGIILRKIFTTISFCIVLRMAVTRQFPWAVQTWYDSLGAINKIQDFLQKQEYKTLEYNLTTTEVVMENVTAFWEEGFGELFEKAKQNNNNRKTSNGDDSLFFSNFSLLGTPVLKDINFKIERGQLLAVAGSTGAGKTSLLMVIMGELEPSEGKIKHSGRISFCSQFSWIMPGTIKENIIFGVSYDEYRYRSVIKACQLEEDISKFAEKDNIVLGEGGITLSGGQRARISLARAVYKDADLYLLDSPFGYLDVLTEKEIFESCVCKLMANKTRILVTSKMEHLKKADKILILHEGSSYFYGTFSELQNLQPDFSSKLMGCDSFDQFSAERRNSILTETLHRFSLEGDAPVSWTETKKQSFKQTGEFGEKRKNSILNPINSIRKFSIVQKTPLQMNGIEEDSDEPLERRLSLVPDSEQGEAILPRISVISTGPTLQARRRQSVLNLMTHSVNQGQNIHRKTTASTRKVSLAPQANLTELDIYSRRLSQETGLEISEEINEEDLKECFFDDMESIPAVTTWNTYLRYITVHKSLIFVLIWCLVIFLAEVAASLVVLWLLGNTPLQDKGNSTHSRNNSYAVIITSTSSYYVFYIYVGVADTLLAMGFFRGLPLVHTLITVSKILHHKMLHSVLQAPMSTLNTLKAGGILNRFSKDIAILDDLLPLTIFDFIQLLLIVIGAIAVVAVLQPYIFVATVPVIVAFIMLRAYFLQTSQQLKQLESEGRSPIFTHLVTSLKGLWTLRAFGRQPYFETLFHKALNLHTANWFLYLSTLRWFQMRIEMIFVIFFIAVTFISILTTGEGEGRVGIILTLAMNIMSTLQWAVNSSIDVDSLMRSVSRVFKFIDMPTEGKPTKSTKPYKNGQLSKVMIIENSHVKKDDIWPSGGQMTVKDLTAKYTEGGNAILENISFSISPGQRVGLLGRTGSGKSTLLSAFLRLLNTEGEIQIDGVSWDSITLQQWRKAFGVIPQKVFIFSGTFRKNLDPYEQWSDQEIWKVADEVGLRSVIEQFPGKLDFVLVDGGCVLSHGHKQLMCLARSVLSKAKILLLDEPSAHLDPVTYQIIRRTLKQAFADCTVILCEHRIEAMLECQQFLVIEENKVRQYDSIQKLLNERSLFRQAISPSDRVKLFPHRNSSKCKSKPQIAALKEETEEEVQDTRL

This test concerns the target T1, CFTR (Homo sapiens, UniProt P13569).
T1 construct: expressed in transfected cells
Briefly: IonWorks Quattro assay (CFTR Inhibitor Assay), whole-cell planar patch clamp. It counts as cell-based. The conditions noted are these: inward current (−100 mV); CHO cells stably expressing WT-CFTR; CFTR activated by 10 μM forskolin; test compound incubated 10 min. The source says: CFTR activity can be quantified by electrophysiology methods, using the whole-cell configuration of the patch clamp technique (Hamill O, Marty A, Neher E, Sakmann B and Sigworth F. ‘Improved patch-clamp techniques for high resolution current recording from cells and cell-free membrane patches.’ Pflugers Archive 1981 391: 85-100). This assay directly measures the currents associated with chloride flow through CFTR channels whilst either maintaining or adjusting the transmembrane voltage. This assay can use either single glass micropipettes or parallel planar arrays to measure CFTR activity from native or recombinant cell systems. Currents measured using parallel planar arrays can be quantified using an appropriately equipped instrument such as the IonWorks Quattro (Molecular Devices Corporation, Sunnyvale, Calif.). The Quattro system can measure CFTR currents from either a single cell per recording well (HT configuration) or alternatively from a population of 64 cells per well (Population Patch Clamp PPC) (Finkel A, Wittel A, Yang N, Handran S, Hughes J, Costantin J. ‘Population patch clamp improves data consistency and success rates in the measurement of ionic currents.’ J Biomol Screen. 2006 August; 11 (5):488-96).
Chinese hamster ovary (CHO) cells stably expressing WT-CFTR channels were used for the IonWorks Quattro experiments. Cells were maintained at 37° C. in 5% v/v CO2 at 100% humidity in MEM alpha medium supplemented with 10% (v/v) FCS, 100 U/mL Penicillin/Streptomycin, and 100 μg/L methotrexate. For experiments, cells were grown in 225 cm^2 tissue culture flasks until almost confluent. Cells were removed from the flask using trypsin-EDTA and resuspended in extracellular recording solution for immediate experimentation.
Cells, at a density of 1.5-2 million per mL, were placed on the Quattro system, added to the planar patch plate and seals allowed to establish for 5-10 mins. After assessing seal resistances (typically >50 MΩ), whole-cell access was obtained by perforation with 100 μg/mL amphotericin B. Baseline currents were measured by a pre-compound scan obtained by application of a voltage ramp from −100 to +100 mV. CFTR was activated by the addition of 10 μM forskolin to each of the 384 wells of the patch plate. After 5 min incubation the post-compound 1 currents were measured, again by application of a voltage ramp from −100 to +100 mV. Test compounds, diluted from 10 mM stocks in DMSO in extracellular solution were then added to the patch plate and were incubated for a further 10 min. The post-compound 2 currents were measured by the application of the same voltage ramp from −100 to +100 mV. The inhibition of CFTR was determined from the difference in current between the forskolin addition (post-compound 1) and the test compound (post-compound 2). This was determined at both −100 mV and +100 mV which represents the inward and outward current respectively.
Extracellular solution (ECS): 145 mM NaCl, 4 mM CsCl, 5 mM D-glucose, 10 mM TES, 1 mM CaCl2, 1 mM MgCl2, pH 7.4 NaOH
Intracellular solution (ICS): 113 mM L-Aspartic acid, 113 mM CsOH, 27 mM CsCl, 1 mM NaCl, 1 mM MgCl2, 1 mM EGTA, 10 mM TES. pH 7.2 with CsOH. Filter sterilized before use.
Compound `Cn1c(=O)c2c(-c3cccc(C#N)c3)n3c(c2n(C)c1=O)C(c1nc(Cl)cs1)CC3` (single isomer, unassigned) [Example 20a, 3-(9-(4-chlorothiazol-2-yl)-1,3-dimethyl-2,4-dioxo-2,3,4,7,8,9-hexahydro-1H-pyrimido[4,5-a]pyrrolizin-5-yl)benzonitrile] came in with an IC50 of 0.27 µM. That is a sub-micromolar value.

`Cc1csc(C2c3c4c(c(-c5cccc(C#N)c5)n3CC2(C)C)c(=O)n(C)c(=O)n4C)n1` (single isomer, unassigned) [Example 21.8, 3-(1,3,8,8-Tetramethyl-9-(4-methylthiazol-2-yl)-2,4-dioxo-2,3,4,7,8,9-hexahydro-1H-pyrimido[4,5-a]pyrrolizin-5-yl)benzonitrile] showed an IC50 of 1.39 µM.

For `Cn1c(=O)c2c(-c3ccccc3)n3c(c2n(C)c1=O)C(c1nc(Cl)cs1)C(C)(C)C3` (single isomer, unassigned) [Example 21a, 9-(4-chlorothiazol-2-yl)-1,3,8,8-tetramethyl-5-phenyl-8,9-dihydro-1H-pyrimido[4,5-a]pyrrolizine-2,4(3H,7H)-dione], the IC50 amounted to 0.33 µM. Against the preceding compound, the IC50 is about 4.2-fold lower.

The compound `Cn1c(=O)c2c(-c3cccc(C#N)c3)n3c(c2n(C)c1=O)[C@H](c1nc(Cl)cs1)C[C@@H](CO)C3` (single isomer, unassigned) [Example 23.1a, 3-(10-(4-chlorothiazol-2-yl)-8-(hydroxymethyl)-1,3-dimethyl-2,4-dioxo-1,2,3,4,7,8,9,10-octahydropyrimido[4,5-a]indolizin-5-yl)benzonitrile] came in with an IC50 of 0.1 µM.

In turn, `Cn1c(=O)c2c(-c3cccc(F)c3)n3c(c2n(C)c1=O)[C@H](c1nc(Cl)cs1)C[C@@H](CO)C3` (single isomer, unassigned) [Example 23a, 10-(4-chlorothiazol-2-yl)-5-(3-fluorophenyl)-8-(hydroxymethyl)-1,3-dimethyl-7,8,9,10-tetrahydropyrimido[4,5-a]indolizine-2,4(1H,3H)-dione] showed an IC50 of 0.05 µM.

`Cc1ccc([C@@H]2CC[C@@H](Cn3nccn3)n3c(-c4ccccc4)c4c(=O)n(C)c(=O)n(C)c4c32)o1` (single isomer, unassigned) [Example 24]: 1.74 µM corresponded to half-maximal inhibition (IC50).

`COCC(=O)NC[C@H]1Cn2c(-c3nc(C)cs3)c3c(=O)n(C)c(=O)n(C)c3c2[C@H](c2ccc(Cl)o2)S1` (single isomer, unassigned) [Example 26.1a, N-((10-(5-chlorofuran-2-yl)-1,3-dimethyl-5-(4-methylthiazol-2-yl)-2,4-dioxo-2,3,4,7,8,10-hexahydro-1H-pyrimido[4′,5′:3,4]pyrrolo[2,1-c][1,4]thiazin-8-yl)methyl)-2-methoxyacetamide] came in with an IC50 of 0.23 µM.

The compound `CC(=O)NC[C@H]1Cn2c(-c3nc(C)cs3)c3c(=O)n(C)c(=O)n(C)c3c2[C@H](c2ccc(Cl)o2)S1` (single isomer, unassigned) [Example 26.3a, N-((10-(5-chlorofuran-2-yl)-1,3-dimethyl-5-(4-methylthiazol-2-yl)-2,4-dioxo-2,3,4,7,8,10-hexahydro-1H-pyrimido[4′,5′:3,4]pyrrolo[2,1-c][1,4]thiazin-8-yl)methyl)acetamide] returned an IC50 of 0.45 µM.

`Cc1csc(-c2c3c(=O)n(C)c(=O)n(C)c3c3n2C[C@H](CNS(C)(=O)=O)S[C@H]3c2ccc(Cl)o2)n1` (single isomer, unassigned) [Example 26a, N-((10-(5-chlorofuran-2-yl)-1,3-dimethyl-5-(4-methylthiazol-2-yl)-2,4-dioxo-2,3,4,7,8,10-hexahydro-1H-pyrimido[4′,5′:3,4]pyrrolo[2,1-c][1,4]thiazin-8-yl)methyl)methanesulfonamide] had an IC50 of 0.15 µM.

As to `Cc1csc(-c2c3c(=O)n(C)c(=O)n(C)c3c3n2C[C@@H](Cn2ccnc2)S[C@@H]3c2ccc(Cl)o2)n1` (single isomer, unassigned) [Example 28a, 8-((1H-imidazol-1-yl)methyl)-10-(5-chlorofuran-2-yl)-1,3-dimethyl-5-(4-methylthiazol-2-yl)-7,8-dihydro-1H-pyrimido[4′,5′:3,4]pyrrolo[2,1-c][1,4]thiazine-2,4(3H,10H)-dione], the IC50 was determined as 0.11 µM.

The compound `Cc1csc(-c2c3c(=O)n(C)c(=O)n(C)c3c3n2C[C@@H](CN2CCCC2=O)S[C@@H]3c2ccc(Cl)o2)n1` (single isomer, unassigned) [Example 30.1a, 10-(5-chlorofuran-2-yl)-1,3-dimethyl-5-(4-methylthiazol-2-yl)-8-((2-oxopyrrolidin-1-yl)methyl)-7,8-dihydro-1H-pyrimido[4′,5′:3,4]pyrrolo[2,1-c][1,4]thiazine-2,4(3H,10H)-dione] gave a 50% inhibitory concentration (IC50) of 0.25 µM. Against the preceding compound, the IC50 is about 2.3-fold higher.

For the compound `Cc1csc(-c2c3c(=O)n(C)c(=O)n(C)c3c3n2C[C@@H](CN2CCOC2=O)S[C@@H]3c2ccc(Cl)o2)n1` (single isomer, unassigned) [Example 30a, 10-(5-chlorofuran-2-yl)-1,3-dimethyl-5-(4-methylthiazol-2-yl)-8-((2-oxooxazolidin-3-yl)methyl)-7,8-dihydro-1H-pyrimido[4′,5′:3,4]pyrrolo[2,1-c][1,4]thiazine-2,4(3H,10H)-dione], the IC50 worked out at 0.16 µM.

`Cn1c(=O)c2c(-c3cccc(C#N)c3)n3c(c2n(C)c1=O)C(c1nc(Cl)cs1)CCCC3` (single isomer, unassigned) [Example 31, 3-(11-(4-chlorothiazol-2-yl)-1,3-dimethyl-2,4-dioxo-2,3,4,7,8,9,10,11-octahydro-1H-pyrimido[4′,5′:3,4]pyrrolo[1,2-a]azepin-5-yl)benzonitrile] registered an IC50 of 1.45 µM.

`Cn1c(=O)c2c(-c3ccccc3)n3c(c2n(C)c1=O)[C@H](c1ccc(Cl)o1)SCC3` [Example 1.1.1, (R)-10-(5-chlorofuran-2-yl)-1,3-dimethyl-5-phenyl-7,8-dihydro-1H-pyrimido[4′,5′:3,4]pyrrolo[2,1-c][1,4]thiazine-2,4(3H,10H)-dione] had an IC50 of 0.63 µM.

Take `Cc1ccc([C@@H]2CCCn3c(-c4ccccc4)c4c(=O)n(C)c(=O)n(C)c4c32)o1` [Example 6.3, (R)-1,3-Dimethyl-10-(5-methylfuran-2-yl)-5-phenyl-7,8,9,10-tetrahydropyrimido[4,5-a]indolizine-2,4(1H,3H)-dione]: the IC50 was determined as 2.24 µM.

Compound `Cc1ccc([C@H]2CCCn3c(-c4ccccc4)c4c(=O)n(C)c(=O)n(C)c4c32)o1` [Example 6.4, (S)-1,3-Dimethyl-10-(5-methylfuran-2-yl)-5-phenyl-7,8,9,10-tetrahydropyrimido[4,5-a]indolizine-2,4(1H,3H)-dione] gave a 50% inhibitory concentration (IC50) above 30 µM.

Regarding `Cn1c(=O)c2c(-c3cccc(C#N)c3)n3c(c2n(C)c1=O)[C@H](c1nc(Cl)cs1)CCC3` [Example 13a, (R)-3-(10-(4-chlorothiazol-2-yl)-1,3-dimethyl-2,4-dioxo-1,2,3,4,7,8,9,10-octahydropyrimido[4,5-a]indolizin-5-yl)benzonitrile], the IC50 came out at 0.07 µM.

With `Cn1c(=O)c2c(-c3cccc(F)c3)n3c(c2n(C)c1=O)[C@H](c1nc(Cl)cs1)C[C@@H]3CO` [Example 27a, (7R,9R)-9-(4-chlorothiazol-2-yl)-5-(3-fluorophenyl)-7-(hydroxymethyl)-1,3-dimethyl-8,9-dihydro-1H-pyrimido[4,5-a]pyrrolizine-2,4(3H,7H)-dione], the IC50 worked out at 0.15 µM.
